Source: patent publication US20250152585A1, “PHARMACEUTICAL COMPOUND” (Duke Street Bio Limited, priority 2022, published 2025)
Where two headings read alike, the source gives them in different places.

Tests used:
[1] = target: T1, N-terminally FLAG-tagged PARP2 (amino acids 1-583) (Homo sapiens, UniProt Q9UGN5); test: PARP2 probe displacement HTRF assay; type: binding; details: binned Kd
T1 construct: N-terminally FLAG-tagged PARP2 (amino acids 1-583)
Description: Data analysis was performed identical as for PARP1.

[2] = target: T2, full length N-terminally FLAG-tagged PARP1 (Homo sapiens, UniProt P09874); test: PARP1 probe displacement HTRF assay; details: for Selectivity: PARP1 over PARP2, ratio Kd (PARP2)/Kd (PARP1); for Kd: binned Kd
[3] = target: T2, full length N-terminally FLAG-tagged PARP1; test: PARP1 biochemical DELFIA assay (auto-PARylation); design: recombinant full length human N-terminally FLAG-tagged PARP1
[4] = read-out: PARP1 HTRF, probe displacement HTRF
[5] = binned IC50, biochemical auto-PARylation assay
[6] = read-out: PARP1 HTRF, PARP1 probe displacement HTRF
[7] = binned IC50, PARP1 biochemical DELFIA assay
[8] = PARP1 HTRF, probe displacement HTRF

T2 sequence (P09874 whole entry): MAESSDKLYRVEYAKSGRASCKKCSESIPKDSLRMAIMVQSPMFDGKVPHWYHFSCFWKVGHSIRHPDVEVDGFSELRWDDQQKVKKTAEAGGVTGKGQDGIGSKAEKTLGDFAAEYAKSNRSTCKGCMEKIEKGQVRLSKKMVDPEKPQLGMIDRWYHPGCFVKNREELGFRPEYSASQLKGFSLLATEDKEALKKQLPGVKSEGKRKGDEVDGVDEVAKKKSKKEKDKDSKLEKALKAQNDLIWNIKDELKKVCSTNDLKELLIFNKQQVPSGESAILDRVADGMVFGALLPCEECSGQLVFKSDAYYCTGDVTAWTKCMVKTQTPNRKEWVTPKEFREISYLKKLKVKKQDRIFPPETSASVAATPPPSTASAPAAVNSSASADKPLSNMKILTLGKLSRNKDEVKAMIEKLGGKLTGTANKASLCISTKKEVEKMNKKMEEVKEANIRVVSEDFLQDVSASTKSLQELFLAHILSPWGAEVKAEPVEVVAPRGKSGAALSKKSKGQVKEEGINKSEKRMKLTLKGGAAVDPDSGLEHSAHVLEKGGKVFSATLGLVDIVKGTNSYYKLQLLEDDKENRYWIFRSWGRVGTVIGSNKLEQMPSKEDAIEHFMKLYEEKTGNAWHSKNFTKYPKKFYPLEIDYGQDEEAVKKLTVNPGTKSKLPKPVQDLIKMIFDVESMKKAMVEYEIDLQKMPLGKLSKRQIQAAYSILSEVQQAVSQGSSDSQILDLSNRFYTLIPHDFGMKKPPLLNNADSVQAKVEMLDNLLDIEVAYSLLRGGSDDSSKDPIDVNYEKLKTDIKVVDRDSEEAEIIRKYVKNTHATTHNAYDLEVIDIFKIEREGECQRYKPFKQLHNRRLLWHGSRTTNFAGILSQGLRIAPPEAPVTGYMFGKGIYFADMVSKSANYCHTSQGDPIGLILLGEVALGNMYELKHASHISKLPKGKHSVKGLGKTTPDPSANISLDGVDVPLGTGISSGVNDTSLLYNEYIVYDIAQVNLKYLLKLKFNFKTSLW
T1 sequence (Q9UGN5 whole entry, the tested form may be a part): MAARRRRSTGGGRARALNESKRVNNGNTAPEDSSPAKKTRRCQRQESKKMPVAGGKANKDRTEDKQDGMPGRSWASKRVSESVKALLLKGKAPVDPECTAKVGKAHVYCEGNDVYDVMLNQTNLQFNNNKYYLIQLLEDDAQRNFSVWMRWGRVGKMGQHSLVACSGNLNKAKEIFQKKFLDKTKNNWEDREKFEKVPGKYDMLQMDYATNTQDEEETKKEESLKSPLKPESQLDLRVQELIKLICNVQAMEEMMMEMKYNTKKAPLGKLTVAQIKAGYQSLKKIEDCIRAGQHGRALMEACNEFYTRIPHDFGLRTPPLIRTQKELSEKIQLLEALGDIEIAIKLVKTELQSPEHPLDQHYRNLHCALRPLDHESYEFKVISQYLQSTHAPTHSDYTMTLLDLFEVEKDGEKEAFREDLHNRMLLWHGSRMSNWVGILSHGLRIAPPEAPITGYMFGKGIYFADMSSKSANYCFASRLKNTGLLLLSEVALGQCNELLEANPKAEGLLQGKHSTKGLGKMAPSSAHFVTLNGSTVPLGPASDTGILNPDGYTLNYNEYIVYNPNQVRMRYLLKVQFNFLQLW

SMILES	Kd ([1]; probe displacement HTRF) [nM]	Selectivity ([2]; probe displacement HTRF)	Kd [2, 4] [nM]	IC50 [3, 5] [nM]	Kd ([1]; PARP2 probe displacement HTRF) [nM]	Kd [2, 6] [nM]	IC50 [3, 7] [nM]	Kd [2, 8] [nM]	Kd ([2]; PARP1 HTRF, PARP1 probe displacement HTRF) [nM]
N#Cc1nc(C(=O)NC2CC2)ccc1N1CCC(N2CCC(c3cc4ccc(F)cc4c(=O)[nH]3)C2)CC1 (single isomer, unassigned) [Compound 397a]	100 to 1000	+++ (+++ indicate a value of at least 100)	< 10	< 10	–	–	–	–	–
CNC(=O)c1ccc(N2CCC(N3CCCC(c4nc5c(Cl)cccc5c(=O)[nH]4)C3)CC2)cn1 (single isomer, unassigned) [Compound 44b]	–	+ (+ indicates a value of 10 to less than 50)	–	–	1000 to 10000	10 to 100	10 to 100	–	–
CNC(=O)c1ccc(N2CCC(N3CCC(c4nc5ccc(C(F)(F)F)cc5c(=O)[nH]4)C3)CC2)cn1 (single isomer, unassigned) [Compound 161b]	–	+++ (+++ indicate a value of at least 100)	–	–	1000 to 10000	< 10	< 10	–	–
O=C(NCC(F)F)c1ccc(N2CCC(N3CCC(c4cc5cccc(F)c5c(=O)[nH]4)C3)CC2)c(F)n1 (single isomer, unassigned) [Compound 390a]	100 to 1000	+++ (+++ indicate a value of at least 100)	< 10	< 10	–	–	–	–	–
CNC(=O)c1ccc(N2CCC(N3CCC(c4cc5ccc(F)cc5c(=O)[nH]4)C3)CC2)nn1 (single isomer, unassigned) [Compound 197b]	–	+++ (+++ indicate a value of at least 100)	–	–	1000 to 10000	10 to 100	10 to 100	–	–
CCc1ccc(C2CCN(C3CCN(c4ccc(C(=O)NCCF)nc4)CC3)C2)[nH]c1=O (single isomer, unassigned) [Compound 165a]	–	+++ (+++ indicate a value of at least 100)	–	–	100 to 1000	< 10	< 10	–	–
CCc1ccc(C2CCN(C3CCN(c4ccc(C(=O)NCC(F)(F)F)nc4)CC3)C2)[nH]c1=O (racemic) [Compound 153rac]	–	++ (++ indicates a value of 50 to less than 100)	–	–	100 to 1000	< 10	< 10	–	–
CNC(=O)c1ccc(N2CCC(N3CC4(c5nc6ccc(F)cc6c(=O)[nH]5)CC3C4)CC2)c(C#N)n1 [Compound 387]	100 to 1000	+++ (+++ indicate a value of at least 100)	–	< 10	–	–	–	< 10	–
CNC(=O)c1ccc(N2CCC(N3CCC(c4nc5c(Cl)cccc5c(=O)[nH]4)C3)CC2)cn1 (single isomer, unassigned) [Compound 52a, 5-(4-(3-(8-chloro-4-oxo-3,4-dihydroquinazolin-2-yl)pyrrolidin-1-yl)piperidin-1-yl)-N-methylpicolinamide]	–	− (− indicates a value of less than 10)	–	–	100 to 1000	–	10 to 100	–	10 to 100
CNC(=O)c1ncc(N2CCC(N3CCC(c4cc5cccc(F)c5c(=O)[nH]4)C3)CC2)c(C(F)(F)F)n1 (single isomer, unassigned) [Compound 277b]	> 10000	++ (++ indicates a value of 50 to less than 100)	10 to 100	10 to 100	–	–	–	–	–
CCc1ccc(C2CCN(C3CCN(c4cnc(C(=O)NC)nc4C(F)(F)F)CC3)C2)[nH]c1=O (racemic) [Compound 278rac]	> 10000	+++ (+++ indicate a value of at least 100)	10 to 100	10 to 100	–	–	–	–	–
CNC(=O)c1ccc(N2CCC(N3CCC(c4nc5ccccc5c(=O)[nH]4)C3)CC2)c(C(F)F)n1 (single isomer, unassigned) [Compound 158a]	–	+++ (+++ indicate a value of at least 100)	–	–	1000 to 10000	< 10	< 10	–	–
CNC(=O)c1cc(C)c(N2CCC(N3CCC(c4cc5ccccc5c(=O)[nH]4)C3)CC2)c(C)n1 (single isomer, unassigned) [Compound 205b]	–	+ (+ indicates a value of 10 to less than 50)	–	–	1000 to 10000	10 to 100	10 to 100	–	–
CNC(=O)c1ccc(N2CCC(N3CCCC(c4nc5ncccc5c(=O)[nH]4)C3)CC2)cn1 (single isomer, unassigned) [Compound 98a]	–	+++ (+++ indicate a value of at least 100)	–	–	> 10000	10 to 100	10 to 100	–	–
CCc1ccc(C2CCN(C3CCN(c4ccc(C(=O)NC)nn4)CC3)C2)[nH]c1=O (single isomer, unassigned) [Compound 210b]	–	+++ (+++ indicate a value of at least 100)	–	–	1000 to 10000	< 10	< 10	–	–
O=c1[nH]c2ccc(N3CCC(N4CCC(c5cc6ccccc6c(=O)[nH]5)C4)CC3)cc2[nH]1 (racemic) [Compound 413rac]	100 to 1000	+++ (+++ indicate a value of at least 100)	< 10	< 10	–	–	–	–	–

SMILES	Kd ([1]; probe displacement HTRF) [nM]	Selectivity ([2]; probe displacement HTRF)	Kd [2, 4] [nM]	IC50 [3, 5] [nM]	Kd ([1]; PARP2 probe displacement HTRF) [nM]	Kd [2, 6] [nM]	IC50 [3, 7] [nM]	Kd [2, 8] [nM]	Kd ([2]; PARP1 HTRF, PARP1 probe displacement HTRF) [nM]
CNC(=O)c1ccc(N2CCC(N3CCC(c4cc5c(F)cc(F)cc5c(=O)[nH]4)C3)CC2)cn1 (single isomer, unassigned) [Compound 186a]	–	+++ (+++ indicate a value of at least 100)	–	–	100 to 1000	< 10	< 10	–	–
CNC(=O)c1ccc(N2CCC(N3CC4(c5nc6c(c(=O)[nH]5)COCC6)CC3C4)CC2)cn1 [Compound 373]	1000 to 10000	+++ (+++ indicate a value of at least 100)	–	< 10	–	–	–	< 10	–
N#Cc1ccc(N2CCC(N3CCCC(c4nc5ccccc5c(=O)[nH]4)C3)CC2)cn1 (single isomer, unassigned) [Compound 70b]	–	− (− indicates a value of less than 10)	–	–	100 to 1000	100 to 1000	10 to 100	–	–
CCCc1ccc(C2CCN(C3CCN(c4ccc(C(=O)NC)nc4)CC3)C2)[nH]c1=O (single isomer, unassigned) [Compound 261a]	> 10000	− (− indicates a value of less than 10)	1000 to 10000	100 to 1000	–	–	–	–	–
CNC(=O)c1ccc(N2CCC(N3CCC(c4cc5cccc(F)c5c(=O)[nH]4)C3)CC2)c(Cl)n1 (single isomer, unassigned) [Compound 183a]	–	+++ (+++ indicate a value of at least 100)	–	–	1000 to 10000	< 10	< 10	–	–
CNC(=O)c1ccc(N2CCC(N3CCC(c4cc5cccc(F)c5c(=O)[nH]4)C3)CC2)c(C)n1 (single isomer, unassigned) [Compound 206a]	–	+++ (+++ indicate a value of at least 100)	–	–	100 to 1000	< 10	< 10	–	–
O=C(NC1CC1)c1ncc(N2CCC(N3CC4(c5nc6ccc(F)cc6c(=O)[nH]5)CC3C4)CC2)cc1F [Compound 411]	100 to 1000	+++ (+++ indicate a value of at least 100)	–	< 10	–	–	–	< 10	–
O=C(NC1COC1)c1ccc(N2CCC(N3CCC(c4nc5ccccc5c(=O)[nH]4)C3)CC2)cn1 (racemic) [Compound 229rac]	100 to 1000	+++ (+++ indicate a value of at least 100)	< 10	10 to 100	–	–	–	–	–
CNC(=O)c1ccc(N2CCC(N3CCC(c4cc5c(F)cccc5c(=O)[nH]4)C3)CC2)cn1 (single isomer, unassigned) [Compound 172b]	–	+++ (+++ indicate a value of at least 100)	–	–	10 to 100	< 10	< 10	–	–
CCc1ccc(C2CCN(C3CCN(c4ccc(C(=O)NCCF)nc4F)CC3)C2)[nH]c1=O (single isomer, unassigned) [Compound 322a]	> 10000	+++ (+++ indicate a value of at least 100)	< 10	< 10	–	–	–	–	–
CNC(=O)c1ccc(N2CCC(N3CCC(c4cc5cccc(F)c5c(=O)[nH]4)C3)CC2)nn1 (single isomer, unassigned) [Compound 209a]	–	+++ (+++ indicate a value of at least 100)	–	–	100 to 1000	< 10	< 10	–	–
N#Cc1ccc(N2CCC(N3CCC(c4cc5ccc(F)cc5c(=O)[nH]4)C3)CC2)c(Cl)c1 (single isomer, unassigned) [Compound 386b]	1000 to 10000	+++ (+++ indicate a value of at least 100)	< 10	< 10	–	–	–	–	–
O=c1[nH]c(C2CCN(C3CCN(c4ccc(OC(F)F)nc4)CC3)C2)cc2ccc(F)cc12 (single isomer, unassigned) [Compound 374a]	100 to 1000	+ (+ indicates a value of 10 to less than 50)	10 to 100	10 to 100	–	–	–	–	–
CNC(=O)c1cc(Cl)c(N2CCC(N3CCC(c4cc5ccc(F)cc5c(=O)[nH]4)C3)CC2)cn1 (single isomer, unassigned) [Compound 236a]	100 to 1000	+ (+ indicates a value of 10 to less than 50)	10 to 100	10 to 100	–	–	–	–	–
CNC(=O)c1ccc(N2CCC(N3CCC(c4cc5c(c(=O)[nH]4)CCC(=O)N5)C3)CC2)cn1 (single isomer, unassigned) [Compound 309b, 5-(4-(3-(2,5-dioxo-1,2,3,4,5,6-hexahydro-1,6-naphthyridin-7-yl)pyrrolidin-1-yl)piperidin-1-yl)-N-methylpicolinamide]	> 10000	++ (++ indicates a value of 50 to less than 100)	–	10 to 100	–	–	–	–	–
CNC(=O)c1ccc(N2CCC(N3CCC(c4cc5ncc(Cl)cc5c(=O)[nH]4)C3)CC2)c(F)n1 (single isomer, unassigned) [Compound 344a]	> 10000	+++ (+++ indicate a value of at least 100)	< 10	< 10	–	–	–	–	–
